Measurements from patent publication US20100249145A1, “Inhibitors of VEGF Receptor and HGF Receptor Signaling” (Methylgene, Inc., priority 2005, published 2010).
Values belong to the compound of their own block, whether it stands above or below them.

Legend:
TPR-MET fusion protein = TPR-MET fusion protein (Homo sapiens, UniProt P08581); experiment: C-Met phosphorylation cell-based assay (MNNGHOS cells, immunoblot); conditions: Table 30, 3 hours treatment, read-out: C-Met cell-based Y1230-34-35 tpr-met inhibition (IC50)
Excerpt: C-Met Phosphorylation Cell-Based Assay

HCT116 = experiment: In vivo solid tumor disease model, HCT116 xenograft; set-up: species or system female athymic CD 1 mice; conditions: 14 days
VEGF receptor KDR = molecular target: T1, VEGF receptor KDR (Homo sapiens, UniProt P35968); experiment: In vitro receptor tyrosine kinase assay (DELFIA), VEGF receptor KDR; format: biochemical; conditions: Table 30; ATP 0.6 uM, enzyme 5 nM; read-out: VEGF(enz.) (IC50)
T1 construct: made in house; host or cells: Sf9 cells (Spodoptera frugiperda), recombinant baculovirus

[1] = molecular target: T2, recombinant human c-Met/HGF receptor (Homo sapiens, UniProt P08581); experiment: In vitro receptor tyrosine kinase assay (DELFIA), c-Met/HGF receptor; format: biochemical; conditions: Table 30; ATP 10 uM, enzyme 25 nM; read-out: C-Met (enz.) (IC50)
T2 construct: His tag (histidine tag from pBlueBacHis2A); made in house; host or cells: Hi-5 cells (Trichoplusia ni), recombinant baculovirus

U87 cells = experiment: In vivo solid tumor disease model, U87 xenograft; set-up: species or system female athymic CD 1 mice; conditions: U87MG
Excerpt: (§1) In Vivo Solid Tumor Disease Model
(§2) This test measures the capacity of compounds to inhibit solid tumor growth.
(§3) Tumor xenografts were established in the flank of female athymic CD 1 mice (Charles River Inc.), by subcutaneous injection of 1×10^6U87, A431 or SKLMS cells/mouse. Once established, tumors were then serially passaged s.c. in nude mice hosts. Tumor fragments from these host animals were used in subsequent compound evaluation experiments. For compound evaluation experiments female nude mice weighing approximately 20 g were implanted s.c. by surgical implantation with tumor fragments of ˜30 mg from donor tumors. When the tumors were approximately 100 mm^3 in size (˜7-10 days following implantation), the animals were randomized a separated into treatment and control groups. Each group contained 6-8 tumor-bearing mice, each of which was ear-tagged and followed individually throughout the experiment
(§4) Mice were weighed and tumor measurements are taken by calipers three times weekly, starting on Day 1. These tumor measurements were converted to tumor volume by the well-known formula (L+W/4)^34/3π. The experiment was terminated when the control tumors reached a size of approximately 1500 mm^3. In this model, the change in mean tumor volume for a compound treated group/the change in mean tumor volume of the control group (non-treated or vehicle treated)×100 (ΔT/ΔC) was subtracted from 100 to give the percent tumor growth inhibition (% TGI) for each test compound. In addition to tumor volumes, body weight of animals were monitored twice weekly for up to 3 weeks.
(§5) Regiment of administration was once daily.

A549 = experiment: In vivo solid tumor disease model, A549 xenograft; set-up: species or system female athymic CD 1 mice
DU145 = experiment: In vivo solid tumor disease model, DU145 xenograft; set-up: species or system female athymic CD 1 mice; conditions: 10 days
A431 cells = experiment: In vivo solid tumor disease model, A431 xenograft; set-up: species or system female athymic CD 1 mice; conditions: 30 mg/kg once daily IP, vehicle DMSO, 14 days
Excerpt: as §1, §2, §3, §4, §5

SKLMS cells = experiment: In vivo solid tumor disease model, SKLMS xenograft; set-up: species or system female athymic CD 1 mice; conditions: SKLMS40
Excerpt: as §1, §2, §3, §4, §5

[2] = 30 mg/kg once daily IP, vehicle DMSO, 14 days
[3] = 15 mg/kg once daily IP, vehicle DMSO
[4] = 30 mg/kg once daily IP, vehicle DMSO
[5] = 15 mg/kg once daily IP, vehicle DMSO, 10 days
[6] = 30 mg/kg once daily IP, vehicle DMSO, 10 days
[7] = 75 mg/kg once daily PO, vehicle 5% DMSO - 1% Tween-80 in water, 10 days
[8] = 75 mg/kg once daily PO, vehicle 5% DMSO - 1% Tween-80 in water, 14 days

T1 sequence (P35968 806-1356): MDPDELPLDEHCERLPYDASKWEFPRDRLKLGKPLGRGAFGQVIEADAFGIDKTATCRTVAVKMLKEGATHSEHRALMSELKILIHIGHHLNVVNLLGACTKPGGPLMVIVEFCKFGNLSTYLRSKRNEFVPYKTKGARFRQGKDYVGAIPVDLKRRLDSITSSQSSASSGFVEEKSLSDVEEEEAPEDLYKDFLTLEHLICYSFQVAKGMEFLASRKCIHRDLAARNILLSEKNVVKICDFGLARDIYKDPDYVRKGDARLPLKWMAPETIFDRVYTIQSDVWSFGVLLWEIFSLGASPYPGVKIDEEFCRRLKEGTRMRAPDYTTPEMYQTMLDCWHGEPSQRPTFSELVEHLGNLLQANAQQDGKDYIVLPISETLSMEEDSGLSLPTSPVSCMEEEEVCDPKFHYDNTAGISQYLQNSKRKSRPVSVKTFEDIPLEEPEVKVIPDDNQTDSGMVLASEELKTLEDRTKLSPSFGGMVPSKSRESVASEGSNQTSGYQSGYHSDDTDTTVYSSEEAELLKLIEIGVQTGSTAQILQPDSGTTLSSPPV
T2 sequence (P08581 1078-1337): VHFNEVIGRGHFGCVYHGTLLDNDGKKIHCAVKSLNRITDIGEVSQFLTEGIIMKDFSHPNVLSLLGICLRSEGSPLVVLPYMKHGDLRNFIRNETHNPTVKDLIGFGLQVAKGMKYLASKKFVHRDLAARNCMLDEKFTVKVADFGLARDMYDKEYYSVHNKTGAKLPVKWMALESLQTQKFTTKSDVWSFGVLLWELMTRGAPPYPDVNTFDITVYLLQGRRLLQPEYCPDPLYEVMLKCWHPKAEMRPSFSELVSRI
Chain of TPR-MET fusion protein (P08581 with tags, fused parts or gaps): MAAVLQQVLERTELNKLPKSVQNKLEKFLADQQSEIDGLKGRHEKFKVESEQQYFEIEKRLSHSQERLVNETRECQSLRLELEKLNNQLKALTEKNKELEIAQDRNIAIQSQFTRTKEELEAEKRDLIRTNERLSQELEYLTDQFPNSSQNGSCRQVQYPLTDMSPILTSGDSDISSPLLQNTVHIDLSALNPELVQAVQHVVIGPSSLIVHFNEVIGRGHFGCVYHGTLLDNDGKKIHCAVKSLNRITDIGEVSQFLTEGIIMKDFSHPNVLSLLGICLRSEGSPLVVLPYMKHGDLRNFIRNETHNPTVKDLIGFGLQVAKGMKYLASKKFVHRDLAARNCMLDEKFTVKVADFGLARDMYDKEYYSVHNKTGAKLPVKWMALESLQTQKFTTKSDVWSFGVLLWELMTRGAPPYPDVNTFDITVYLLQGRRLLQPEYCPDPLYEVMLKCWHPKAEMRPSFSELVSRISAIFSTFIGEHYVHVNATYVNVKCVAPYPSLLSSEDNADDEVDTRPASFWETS

IC50 (TPR-MET fusion protein): < 50 nM | IC50 (VEGF receptor KDR): < 50 nM | IC50 [1]: 50 to 250 nM
SMILES: O=C(Cc1ccccc1)NC(=S)Nc1ccc(Oc2ccnc3cc(-c4nccs4)sc23)c(F)c1 [Example 12, 1-(4-(2-(Thiazol-2-yl)thieno[3,2-b]pyridin-7-yloxy)-3-fluorophenyl)-3-(2-phenylacetyl)thiourea]
Tumor Growth Inhibition (%) (HCT116; HST116, 30 mg/kg once daily IP, vehicle DMSO): c (% TGI in the range of 25-49) | Tumor Growth Inhibition (%) (U87 cells; [2]): b (% TGI in the range of 50-74)

IC50 (TPR-MET fusion protein): < 50 nM | IC50 (VEGF receptor KDR): < 50 nM | IC50 [1]: 50 to 250 nM
SMILES: O=C(Cc1ccccc1)NC(=S)Nc1ccc(Oc2ccnc3cc(C(=O)N4CCCC4)sc23)c(F)c1 [Example 37, 1-{3-Fluoro-4-[2-(pyrrolidine-1-carbonyl)-thieno[3,2-b]pyridin-7-yloxy]-phenyl}-3-phenylacetyl-thiourea]
Tumor Growth Inhibition (%) (A549; [2]): c (% TGI in the range of 25-49) | Tumor Growth Inhibition (%) (DU145; [3]): d (% TGI in the range of 0-24) | Tumor Growth Inhibition (%) (DU145; [4]): d (% TGI in the range of 0-24) | Tumor Growth Inhibition (%) (A431 cells): b (% TGI in the range of 50-74) | Tumor Growth Inhibition (%) (U87 cells; 15 mg/kg once daily IV, vehicle 50/50 DMSO:40/60 PEG/0.2 N HCl in saline, 10 days): b (% TGI in the range of 50-74) | Tumor Growth Inhibition (%) (U87 cells; 30 mg/kg once daily IV, vehicle 50/50 DMSO:40/60 PEG/0.2 N HCl in saline, 10 days): c (% TGI in the range of 25-49)

SMILES: O=C(Cc1ccccc1)NC(=S)Nc1ccc(Oc2ccnc3cc(C(=O)N4CC[C@@H](O)C4)sc23)c(F)c1 [Example 38, (R)-N-(3-Fluoro-4-(2-(3-hydroxypyrrolidine-1-carbonyl)thieno[3,2-b]pyridin-7-yloxy)phenylcarbamothioyl)-2-phenylacetamide]
Tumor Growth Inhibition (%) (A549; [2]): c (% TGI in the range of 25-49) | Tumor Growth Inhibition (%) (A431 cells): c (% TGI in the range of 25-49)

IC50 (VEGF receptor KDR): < 50 nM
SMILES: Cn1cnnc1-c1cc2nccc(Oc3ccc(NC(=S)NC(=O)Cc4ccccc4)cc3F)c2s1 [Example 75, N-(3-Fluoro-4-(2-(4-methyl-4H-1,2,4-triazol-3-yl)thieno[3,2-b]pyridin-7-yloxy)phenylcarbamothioyl)-2-phenylacetamide]
Tumor Growth Inhibition (%) (SKLMS cells; [5]): b (% TGI in the range of 50-74) | Tumor Growth Inhibition (%) (A549; 75 mg/kg once daily PO, vehicle 5% DMSO - 1% Tween-80 in water, 12 days): b (% TGI in the range of 50-74) | Tumor Growth Inhibition (%) (DU145; [3]): c (% TGI in the range of 25-49) | Tumor Growth Inhibition (%) (U87 cells; [5]): d (% TGI in the range of 0-24) | Tumor Growth Inhibition (%) (U87 cells; [6]): c (% TGI in the range of 25-49) | Tumor Growth Inhibition (%) (U87 cells; [2]): c (% TGI in the range of 25-49) | Tumor Growth Inhibition (%) (U87 cells; 100 mg/kg once daily PO, vehicle 5% DMSO - 1% Tween-80 in water, 14 days): b (% TGI in the range of 50-74)

SMILES: Cn1cnc(-c2cc3nccc(Oc4ccc(NC(=S)NC(=O)Cc5ccccc5)cc4F)c3s2)c1 [Example 76, N-(3-Fluoro-4-(2-(1-methyl-1H-imidazol-4-yl)thieno[3,2-b]pyridin-7-yloxy)phenylcarbamothioyl)-2-phenylacetamide]
Tumor Growth Inhibition (%) (A549; [2]): b (% TGI in the range of 50-74) | Tumor Growth Inhibition (%) (A549; [7]): b (% TGI in the range of 50-74) | Tumor Growth Inhibition (%) (A549; [8]): c (% TGI in the range of 25-49) | Tumor Growth Inhibition (%) (DU145; 75 mg/kg once daily PO, vehicle 5% DMSO - 1% Tween-80 in water): c (% TGI in the range of 25-49)

SMILES: CCn1cnc(-c2cc3nccc(Oc4ccc(NC(=S)NC(=O)Cc5ccccc5)cc4F)c3s2)c1 [Example 77, N-(4-(2-(1-Ethyl-1H-imidazol-4-yl)thieno[3,2-b]pyridin-7-yloxy)-3-fluorophenylcarbamothioyl)-2-phenylacetamide]
Tumor Growth Inhibition (%) (SKLMS cells; 75 mg/kg once daily PO, vehicle 5% DMSO - 1% Tween-80 in water, 6 days): d (% TGI in the range of 0-24) | Tumor Growth Inhibition (%) (A549; [6]): b (% TGI in the range of 50-74) | Tumor Growth Inhibition (%) (A549; [7]): b (% TGI in the range of 50-74) | Tumor Growth Inhibition (%) (U87 cells; [8]): b (% TGI in the range of 50-74)

SMILES: Cn1cc(-c2cc3nccc(Oc4ccc(NC(=S)NC(=O)Cc5ccccc5)cc4F)c3s2)cn1 [Example 81, N-(3-Fluoro-4-(2-(1-methyl-1H-pyrazol-4-yl)thieno[3,2-b]pyridin-7-yloxy)phenylcarbamothioyl)-2-phenylacetamide]
Tumor Growth Inhibition (%) (SKLMS cells; [8]): c (% TGI in the range of 25-49)

SMILES: CC(C)(C)OC(=O)NC1CCN(C(=O)c2cc3ncnc(Oc4ccc(NC(=S)NC(=O)Cc5ccccc5)cc4F)c3s2)C1 (centres unmarked) [Example 148, tert-Butyl 1-(4-(2-fluoro-4-(3-(2-phenylacetyl)thioureido)phenoxy)thieno[3,2-d]pyrimidine-6-carbonyl)pyrrolidin-3-ylcarbamate]
Tumor Growth Inhibition (%) (DU145; [4]): c (% TGI in the range of 25-49) | Tumor Growth Inhibition (%) (U87 cells; 30 mg/kg once daily IP, vehicle 50/50 DMSO:40/60 PEG/0.2 N HCl in saline, 10 days): c (% TGI in the range of 25-49)

SMILES: Cl.O=C(Cc1c(F)cccc1F)NC(=S)Nc1ccc(Oc2ccnc3cc(C(=O)N4CCCC4)sc23)c(F)c1 [Example 157, 2-(2,6-Difluorophenyl)-N-(3-fluoro-4-(2-(pyrrolidine-1-carbonyl)thieno[3,2-b]pyridin-7-yloxy)phenylcarbamothioyl)acetamide hydrochloride]
Tumor Growth Inhibition (%) (A549; [2]): c (% TGI in the range of 25-49) | Tumor Growth Inhibition (%) (A431 cells): c (% TGI in the range of 25-49)

SMILES: CCn1cnc(-c2cc3nccc(Oc4ccc(NC(=S)NC(=O)Cc5ccccc5F)cc4F)c3s2)c1 [Example 242, 1-{4-[2-(1-Ethyl-1H-imidazol-4-yl)-thieno[3,2-b]pyridin-7-yloxy]-3-fluoro-phenyl}-3-[2-(2-fluoro-phenyl)-acetyl]-thiourea]
Tumor Growth Inhibition (%) (HCT116; HCT116, 75 mg/kg once daily PO, vehicle 5% DMSO - 1% Tween-80 in water): b (% TGI in the range of 50-74) | Tumor Growth Inhibition (%) (U87 cells; [8]): a (% TGI in the range of 75-100)

SMILES: CCn1cnc(-c2cc3nccc(Oc4ccc(NC(=S)NC(=O)Cc5ccccc5OC)cc4F)c3s2)c1 [Example 243, 1-{4-[2-(1-Ethyl-1H-imidazol-4-yl)-thieno[3,2-b]pyridin-7-yloxy]-3-fluoro-phenyl}-3-[2-(2-methoxy-phenyl)-acetyl]-thiourea]
Tumor Growth Inhibition (%) (SKLMS cells; 75 mg/kg once daily PO, vehicle 5% DMSO - 1% Tween-80 in water, 11 days): b (% TGI in the range of 50-74) | Tumor Growth Inhibition (%) (U87 cells; [8]): b (% TGI in the range of 50-74)
